Columns and labels:
Experiment in all cases: Histone peptide microarray
Type in all cases: binding, human
AIRE (PP) = details: GST-tagged AIRE (PP); sheet Array Heatmap; each array performed twice, total n = 4
In short: (§1)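 Binding read as mean relative signal from 4 replicates; microarray held 293 synthetic histone peptides with single or combinatorial PTMs. Each GST-tagged PHD reader was applied at 0.5 μM using the optimized Petell protocol.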

BAZ2B = details: GST-tagged BAZ2B; sheet Array Heatmap; each array performed twice, total n = 4
In short: as §1

BPTF (PB) = details: GST-tagged BPTF (PB = PHD + Bromodomain); sheet Array Heatmap; each array performed twice, total n = 4
In short: as §1

CHD4 (PPCC) = details: for Array Heatmap signal (histone peptide microarray): GST-tagged CHD4 (PPCC = Dual PHD + Dual Chromodomain), sheet Array Heatmap, each array performed twice, total n = 4
In short: as §1

CHD5 (PCC) = details: GST-tagged CHD5 (PCC = PHD + Dual Chromodomain); sheet Array Heatmap; each array performed twice, total n = 4
In short: as §1

CHD5 (PPCC) = details: GST-tagged CHD5 (PPCC = Dual PHD + Dual Chromodomain); sheet Array Heatmap; each array performed twice, total n = 4
In short: as §1

DIDO1 = details: GST-tagged DIDO1; sheet Array Heatmap; each array performed twice, total n = 4
In short: as §1

DPF2 (PPC2W2) = details: GST-tagged DPF2 (PPC2W2 = Dual PHD + C2W2-type Zn-finger); sheet Array Heatmap; each array performed twice, total n = 4
In short: as §1

ING1 = details: GST-tagged ING1; sheet Array Heatmap; each array performed twice, total n = 4
In short: as §1

ING3 = details: GST-tagged ING3; sheet Array Heatmap; each array performed twice, total n = 4
In short: as §1

ING4 = details: GST-tagged ING4; sheet Array Heatmap; each array performed twice, total n = 4
In short: as §1

ING5 = details: GST-tagged ING5; sheet Array Heatmap; each array performed twice, total n = 4
In short: as §1

KDM4C (TTP) = details: GST-tagged KDM4C (TTP = Tandem Tudor domain + PHD); sheet Array Heatmap; each array performed twice, total n = 4
In short: as §1

KDM5A (3) = details: GST-tagged KDM5A (3); sheet Array Heatmap; each array performed twice, total n = 4
In short: as §1

KDM5B (1) = details: GST-tagged KDM5B (1); sheet Array Heatmap; each array performed twice, total n = 4
In short: as §1

KDM5B (3) = details: for Array Heatmap signal (histone peptide microarray): GST-tagged KDM5B (3), sheet Array Heatmap, each array performed twice, total n = 4
In short: as §1

KDM7A = details: GST-tagged KDM7A; sheet Array Heatmap; each array performed twice, total n = 4
In short: as §1

MORC3 (CW) = details: GST-tagged MORC3 (CW = CW-type Zn-finger); sheet Array Heatmap; each array performed twice, total n = 4
In short: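 Each reader, produced as a GST fusion and purified, was tested at 0.5 μM on synthetic histone peptides (293 in total) carrying single or combinatorial marks. Intensities averaged over four replicates.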

PHF13 = details: GST-tagged PHF13; sheet Array Heatmap; each array performed twice, total n = 4
In short: as §1

PHF21A = details: GST-tagged PHF21A; sheet Array Heatmap; each array performed twice, total n = 4
In short: as §1

PHF23 = details: GST-tagged PHF23; sheet Array Heatmap; each array performed twice, total n = 4
In short: as §1

PHF2 = details: GST-tagged PHF2; sheet Array Heatmap; each array performed twice, total n = 4
In short: as §1

PHF8 = details: GST-tagged PHF8; sheet Array Heatmap; each array performed twice, total n = 4
In short: as §1

RAG2 = details: GST-tagged RAG2; sheet Array Heatmap; each array performed twice, total n = 4
In short: as §1

SP140L = details: GST-tagged SP140L; sheet Array Heatmap; each array performed twice, total n = 4
In short: as §1

TAF3 = details: GST-tagged TAF3; sheet Array Heatmap; each array performed twice, total n = 4
In short: as §1

| Substance | Array Heatmap signal (histone peptide microarray) (AIRE (PP)) | Array Heatmap signal (histone peptide microarray) (BAZ2B) | Array Heatmap signal (histone peptide microarray) (BPTF (PB)) | Array Heatmap signal (histone peptide microarray) (CHD4 (PPCC)) | Array Heatmap signal (histone peptide microarray) (CHD5 (PCC)) | Array Heatmap signal (histone peptide microarray) (CHD5 (PPCC)) | Array Heatmap signal (histone peptide microarray) (DIDO1) | Array Heatmap signal (histone peptide microarray) (DPF2 (PPC2W2)) | Array Heatmap signal (histone peptide microarray) (ING1) | Array Heatmap signal (histone peptide microarray) (ING3) | Array Heatmap signal (histone peptide microarray) (ING4) | Array Heatmap signal (histone peptide microarray) (ING5) | Array Heatmap signal (histone peptide microarray) (KDM4C (TTP)) | Array Heatmap signal (histone peptide microarray) (KDM5A (3)) | Array Heatmap signal (histone peptide microarray) (KDM5B (1)) | Array Heatmap signal (histone peptide microarray) (KDM5B (3)) | Array Heatmap signal (histone peptide microarray) (KDM7A) | Array Heatmap signal (histone peptide microarray) (MORC3 (CW)) | Array Heatmap signal (histone peptide microarray) (PHF13) | Array Heatmap signal (histone peptide microarray) (PHF21A) | also measured |
| --- | --- | --- | --- | --- | --- | --- | --- | --- | --- | --- | --- | --- | --- | --- | --- | --- | --- | --- | --- | --- | --- |
| H3 (1-20): unmodified H3 N-terminal peptide (1–20) | 0.4007 | 0.438 | 0.3262 | 0.5925 | 0.7444 | 0.5462 | 0.7104 | 0.6767 | 0.542 | 0.4575 | 0.425 | 0.3305 | 0.431 | 0.4935 | 0.6198 | 0.5464 | 0.3004 | 0.4267 | 0.5761 | 0.4449 | relative binding (CHD4 (PPCC); peptide microarray, reader 0.5 μM, n = 4): no difference in binding; Array Heatmap signal (histone peptide microarray) (PHF23): 0.5836; Array Heatmap signal (histone peptide microarray) (PHF2): 0.5688; Array Heatmap signal (histone peptide microarray) (PHF8): 0.3331; Array Heatmap signal (histone peptide microarray) (RAG2): 0.2786; Array Heatmap signal (histone peptide microarray) (SP140L): 0.461; Array Heatmap signal (histone peptide microarray) (TAF3): 0.2842 |
| H3K4me1: H3 1-20 [Peptide H3K4me1] | 0.5018 | 0.4995 | 0.3638 | 0.5818 | 0.8603 | 0.5953 | 0.6429 | 0.7192 | 0.551 | 0.5265 | 0.4885 | 0.3865 | 0.5341 | 0.6222 | 0.6949 | 0.6104 | 0.37 | 0.5834 | 0.6545 | 0.4917 | Array Heatmap signal (histone peptide microarray) (PHF23): 0.579; Array Heatmap signal (histone peptide microarray) (PHF2): 0.5242; Array Heatmap signal (histone peptide microarray) (PHF8): 0.3997; Array Heatmap signal (histone peptide microarray) (RAG2): 0.3065; Array Heatmap signal (histone peptide microarray) (SP140L): 0.3684; Array Heatmap signal (histone peptide microarray) (TAF3): 0.2998 |
| H3K4me2: H3 1-20 [Peptide H3K4me2] | 0.5318 | 0.5231 | 0.3788 | 0.5852 | 0.8359 | 0.6021 | 0.6829 | 0.7084 | 0.601 | 0.5315 | 0.5223 | 0.3985 | 0.5984 | 0.6851 | 0.6566 | 0.6323 | 0.5271 | 0.6297 | 0.6844 | 0.4967 | Array Heatmap signal (histone peptide microarray) (PHF23): 0.6135; Array Heatmap signal (histone peptide microarray) (PHF2): 0.5474; Array Heatmap signal (histone peptide microarray) (PHF8): 0.5074; Array Heatmap signal (histone peptide microarray) (RAG2): 0.3888; Array Heatmap signal (histone peptide microarray) (SP140L): 0.3615; Array Heatmap signal (histone peptide microarray) (TAF3): 0.3841 |
| H3K4me3: H3 1-20 [Peptide H3K4me3] | 0.3854 | 0.4249 | 0.3538 | 0.5281 | 0.6826 | 0.5167 | 0.7775 | 0.5958 | 0.6386 | 0.4876 | 0.4513 | 0.3493 | 0.4579 | 0.6781 | 0.5666 | 0.4784 | 0.3234 | 0.5878 | 0.5859 | 0.4238 | binding preference (KDM5B (3); peptide microarray, reader 0.5 μM, n = 4, comparison between K9ac + K18ac peptides): showed such a preference on peptide microarrays; Array Heatmap signal (histone peptide microarray) (PHF23): 0.678; Array Heatmap signal (histone peptide microarray) (PHF2): 0.8051; Array Heatmap signal (histone peptide microarray) (PHF8): 0.4526; Array Heatmap signal (histone peptide microarray) (RAG2): 0.3757; Array Heatmap signal (histone peptide microarray) (SP140L): 0.3018; Array Heatmap signal (histone peptide microarray) (TAF3): 0.3678 |

— publication PMC6979384, “Characterization of the plant homeodomain (PHD) reader family for their histone tail interactions” (Epigenetics & Chromatin, 2020)
